# Experimental data taken from ChEMBL document CHEMBL3044812, “QSAR analysis of Mur B inhibitors with antibacterial properties discussing role of physico-chemical parameters” (Med Chem Res, 2011).
# Assay: Inhibition of Escherichia coli murB-mediated eduction of enolpyruvyl uridine diphosphate N-acetylglucosamine to uridine diphosphate N-acetyl muramic acid
row,Compound,pIC50
1,O=C(CCc1ccccc1)c1c(O)n(-c2ccc(Cl)cc2)n(-c2ccc(Cl)cc2)c1=O,5.018
2,O=C(c1cccc(C(F)(F)F)c1)c1c(O)n(-c2ccc(Cl)cc2)n(-c2ccc(Cl)cc2)c1=O,5.26
3,O=C(c1cccc(Cl)c1)c1c(O)n(-c2ccc(Cl)cc2)n(-c2ccc(Cl)cc2)c1=O,5.229
4,O=C(Nc1ccc(Cl)c(Cl)c1)c1c(O)n(-c2ccc(Cl)c(Cl)c2)n(-c2ccc(Cl)c(Cl)c2)c1=O,5.319
5,O=C(Nc1ccccc1)c1c(O)n(-c2ccccc2)n(-c2ccccc2)c1=O,4.268
6,Cc1ccc(NC(=O)c2c(O)n(-c3ccc(Cl)c(Cl)c3)n(-c3ccc(Cl)c(Cl)c3)c2=O)cc1,5.319
7,CCOC(=O)c1cccc(C(=O)c2c(O)n(-c3ccc(Cl)cc3)n(-c3ccc(Cl)cc3)c2=O)c1,4.754
8,O=C(Nc1ccc(Cl)cc1)c1c(O)n(-c2ccccc2)n(-c2ccccc2)c1=O,4.268
9,O=C(c1ccc(OC(F)(F)F)cc1)c1c(O)n(-c2ccc(Cl)cc2)n(-c2ccc(Cl)cc2)c1=O,5.268
10,O=C(c1cccs1)c1c(O)n(-c2ccc(Cl)cc2)n(-c2ccc(Cl)cc2)c1=O,5.237
11,O=C(c1ccccc1)c1c(O)n(-c2ccc(Cl)cc2)n(-c2ccc(Cl)cc2)c1=O,5.009
12,COc1ccc(C(=O)c2c(O)n(-c3ccc(Cl)cc3)n(-c3ccc(Cl)cc3)c2=O)cc1,4.796
13,O=C(Nc1ccc(Cl)cc1)c1c(O)n(-c2cccc(Cl)c2)n(-c2cccc(Cl)c2)c1=O,5.066
14,COc1ccc(CC(=O)c2c(O)n(-c3ccc(Cl)cc3)n(-c3ccc(Cl)cc3)c2=O)cc1,4.398
15,CC(C(=O)c1c(O)n(-c2ccc(Cl)cc2)n(-c2ccc(Cl)cc2)c1=O)c1ccc(Br)cc1 (stereo not drawn),5.252
16,O=C(Nc1ccc(Br)cc1)c1c(O)n(-c2ccccc2)n(-c2ccccc2)c1=O,4.377
17,O=C(c1ccc(O)cc1)c1c(O)n(-c2ccc(Cl)cc2)n(-c2ccc(Cl)cc2)c1=O,4.66
18,N#Cc1ccc(C(=O)c2c(O)n(-c3ccc(Cl)cc3)n(-c3ccc(Cl)cc3)c2=O)cc1,4.882
19,O=C(Nc1ccc(Cl)cc1)c1c(O)n(-c2ccc(Cl)cc2)n(-c2ccc(Cl)cc2)c1=O,4.959
20,O=C(c1ccc(C(F)(F)F)cc1)c1c(O)n(-c2ccc(Cl)cc2)n(-c2ccc(Cl)cc2)c1=O,4.824
21,CCCCOc1ccc(C(=O)c2c(O)n(-c3ccc(Cl)cc3)n(-c3ccc(Cl)cc3)c2=O)cc1,5.347
22,O=C(c1ccc(-c2ccccc2)cc1)c1c(O)n(-c2ccc(Cl)cc2)n(-c2ccc(Cl)cc2)c1=O,5.215
23,O=C(c1ccc(Cl)cc1)c1c(O)n(-c2ccc(Cl)cc2)n(-c2ccc(Cl)cc2)c1=O,4.863
24,O=C(Nc1ccc(C(F)(F)F)cc1)c1c(O)n(-c2cccc(Cl)c2)n(-c2cccc(Cl)c2)c1=O,5.061
25,COc1ccc(NC(=O)c2c(O)n(-c3ccc(Cl)cc3)n(-c3ccc(Cl)cc3)c2=O)cc1,5
26,O=C(Nc1ccc(Cl)c(Cl)c1)c1c(O)n(-c2ccc(Cl)cc2)n(-c2ccc(Cl)cc2)c1=O,4.886
27,O=C(c1c(O)n(-c2ccc(Cl)cc2)n(-c2ccc(Cl)cc2)c1=O)C1CCCCC1,4.62
28,O=C(c1ccccc1Cl)c1c(O)n(-c2ccc(Cl)cc2)n(-c2ccc(Cl)cc2)c1=O,4.914
